According to US20160355457A1, “Solid Forms Comprising(-)-O-Desmethylvenlafaxine And Uses Thereof” (Sunovion Pharmaceuticals Inc., priority 2007, published 2016):

Experiments:
[1] = Moisture sorption/desorption (dynamic vapor sorption); format: physicochemical
Method: Moisture sorption/desorption data were collected on a VTI SGA-100 Vapor Sorption Analyzer. Sorption and desorption data were collected over a range of 5% to 95% relative humidity (RH) at 10% RH intervals under a nitrogen purge. For some samples, a step at 90% RH was added to the sorption cycle. Samples were not dried prior to analysis. Equilibrium criteria used for analysis were less than 0.0100% weight change in 5 minutes, with a maximum equilibration time of 3 hours if the weight criterion was not met. Data were not corrected for the initial moisture content of the samples. NaCl and PVP were used as calibration standards.

[2] = Stability properties of the solid form; format: physicochemical
[3] = decreased from 95% to 5% relative humidity
[4] = increased from 5% to 95% relative humidity

| SMILES | loss in mass on decreasing relative humidity (dynamic vapor sorption) [1, 3] | gain in mass on increasing relative humidity (dynamic vapor sorption) [1, 4] | other results |
| --- | --- | --- | --- |
| CN(C)C[C@@H](c1ccc(O)cc1)C1(O)CCCCC1.Cl [Form A, (−)-1-[2-(dimethylamino)-1-(4-hydroxyphenyl)ethyl]cyclohexanol hydrochloride salt] |  |  | stability properties [2]: excellent stability properties; loss in mass on decreasing relative humidity (dynamic vapor sorption) ([1]; decreased from 90% to 5% relative humidity): about 1%; gain in mass on increasing relative humidity (dynamic vapor sorption) ([1]; increased from 5% to 90% relative humidity, hydrochloride salt): < 1% |
| CN(C)C[C@@H](c1ccc(O)cc1)C1(O)CCCCC1.Cl [amorphous form, (−)-1-[2-(dimethylamino)-1-(4-hydroxyphenyl)ethyl]cyclohexanol monohydrochloride salt] |  |  | loss in mass on decreasing relative humidity (dynamic vapor sorption) ([1]; decreased from 95% to 5% relative humidity, monohydrochloride salt): about 32%; gain in mass on increasing relative humidity (dynamic vapor sorption) ([1]; increased from 5% to 95% relative humidity, monohydrochloride salt): about 36% |
| CN(C)C[C@@H](c1ccc(O)cc1)C1(O)CCCCC1.Cl [Form F, monohydrochloride salt of (−)-O-desmethylvenlafaxine] | about 33% | about 32% |  |
| CN(C)C[C@@H](c1ccc(O)cc1)C1(O)CCCCC1.Cl [Form E, monohydrochloride salt of (−)-O-desmethylvenlafaxine] | about 5.8% | about 4.7% |  |

Now from value to compound, other results behind:

| loss in mass on decreasing relative humidity (dynamic vapor sorption) [1, 3] | gain in mass on increasing relative humidity (dynamic vapor sorption) [1, 4] | SMILES | other results |
| --- | --- | --- | --- |
| about 22% | about 23% | CN(C)C[C@@H](c1ccc(O)cc1)C1(O)CCCCC1.Cl [Form G, monohydrochloride salt of (−)-O-desmethylvenlafaxine] | gain in mass on increasing relative humidity (dynamic vapor sorption) ([1]; increased from 5% to 90% relative humidity): about 3% |
| about 27% | about 27% | CN(C)C[C@@H](c1ccc(O)cc1)C1(O)CCCCC1.Cl [Form C, monohydrochloride salt of (−)-O-desmethylvenlafaxine] |  |
| about 26% | about 25% | CN(C)C[C@@H](c1ccc(O)cc1)C1(O)CCCCC1.Cl [Form B, monohydrochloride salt of (−)-O-desmethylvenlafaxine] |  |
